Reference: paper PMC7221803, “Structure–Activity Relationships and Biological Evaluation of 7-Substituted Harmine Analogs for Human β-Cell Proliferation” (Molecules, 2020)
Where “and” joins values, the source holds several entries; their conditions need not be identical. Identical values can stand only once. Like-named read-outs stand apart in the source and are kept apart here.

Assays:
DYRK1A = DYRK1A (Homo sapiens, UniProt Q13627); assay: FRET-based LanthaScreen Eu Kinase Binding Assay for DYRK1A; conditions: for inhibition at 0.3 µM: read-out: % DYRK1A Inhibition 300 nM; for inhibition at 1 µM: read-out: % DYRK1A Inhibition 1000 nM; for IC50: 10 point LanthaScreen Eu Kinase Binding Assay; for fold less potent DYRK1A inhibition as compared to harmine: relative to harmine (27 nM); for DYRK1A inhibition (result in words): in vitro at the concentrations tested (1000 nM and 300 nM)
Method: Compounds were tested for DYRK1A binding activity by a commercial kinase profiling services, Life Technologies which uses the FRET-based LanthaScreen® Eu Kinase Binding Assay. Compounds were screened for DYRK1A activity at concentrations of 1000 nM and 300 nM in duplicates. The IC50 was determined by 10 point LanthaScreen® Eu Kinase Binding Assay in duplicates.

human β-cells = assay: Human β-cell proliferation assay (Ki67-insulin co-immunolabeling, dispersed human islets); type: cell-based; conditions: for human β-cell proliferation at screening concentration: 10 μM, Ki-67-insulin co-immunolabeling after 4 days, n = 3
Method: Human pancreatic islets were obtained from the NIH/NIDDK-supported Integrated Islet Distribution Program (IIDP) Duarte, CA, USA (https://iidp.coh.org) and studied using protocols that have been published in detail. Briefly, islets were first dispersed with Accutase (Sigma, St. Louis, MO, USA) onto coverslips, and treated with vehicle (0.1% DMSO) or with harmine-related compounds in RPMI1640 complete medium for 96 h. Then the cells were then, fixed with formaldehyde and immunolabeled for insulin and Ki67 as described below. Total insulin-positive cells and cells double positive Ki67 and insulin positive cells were imaged and counted. Islets from 3–5 different adult donors were tested as described in Figure 4. At least 1000 β-cells were counted for human islet donor.

[1] = compound at 1000 nM, duplicates
[2] = 1-2b at 30 μM vs harmine at 10 μM

| inhibition at 0.3 µM (DYRK1A; compound at 300 nM, duplicates) [%] | inhibition at 1 µM (DYRK1A; [1]) [%] | SMILES | also measured |
| --- | --- | --- | --- |
| 22 | 49 | CC(=O)NCCCOc1ccc2c(c1)[nH]c1c(C)nccc12 [1-6b, 3-(7-Oxy-1-methyl-9-H-b-carbolin) -2-acetyl-propylamine] |  |
| 17 | 41 | CC(=O)NCCOCCOc1ccc2c(c1)[nH]c1c(C)nccc12 [1-6d, 2-((7-Oxy-1-methyl-9-H-b-carbolin)ethoxy)-2-acetyl-ethylamine] |  |
|  |  | COC(=O)COc1ccc2c(c1)[nH]c1c(C)nccc12 [1-2a, 2-(7-Oxy-1-methyl-9-H-b-carbolin)acetic acid methyl ester] | IC50 (DYRK1A; duplicates): 0.194 ± 0.0117 µM; inhibition at 0.3 µM (DYRK1A): 58%; inhibition at 1 µM (DYRK1A): 85% |
|  |  | Cc1nccc2c1[nH]c1cc(OCCCN)ccc12 [1-5b, 3-(7-Oxy-1-methyl-9-H-b-carbolin)propylamine hydrochloric acid] | inhibition at 0.3 µM (DYRK1A): 8%; inhibition at 1 µM (DYRK1A): 28% |
| 67 | 88 | Cc1nccc2c1[nH]c1cc(OCCCCC(N)=O)ccc12 [1-3d, 5-(7-Oxy-1-methyl-9-H-b-carbolin)pentanamide] |  |
| 12 | 25 | Cc1nccc2c1[nH]c1cc(OCCN)ccc12 [1-5a, 2-(7-Oxy-1-methyl-9-H-b-carbolin)ethylamine hydrochloric acid] |  |
|  |  | Cc1nccc2c1[nH]c1cc(OCCC(N)=O)ccc12 [1-3b, 3-(7-Oxy-1-methyl-9-H-b-carbolin)propionamide] | human β-cell proliferation at screening concentration (human β-cells): exhibit human β-cell proliferation; IC50 (DYRK1A; duplicates): 0.091 µM; fold less potent DYRK1A inhibition as compared to harmine (DYRK1A): ~ 3 fold |
| 6 | 19 | Cc1nccc2c1[nH]c1cc(OCCCC(=O)O)ccc12 [1-4c, 4-(7-Oxy-1-methyl-9-H-b-carbolin)butnoic acid] |  |
| 47 | 78 | COC(=O)CCCOc1ccc2c(c1)[nH]c1c(C)nccc12 [1-2c, 4-(7-Oxy-1-methyl-9-H-b-carbolin)butnoic acid methyl ester] |  |
| 31 | 58 | Cc1nccc2c1[nH]c1cc(OCCCCNC(=O)OC(C)(C)C)ccc12 [1-2m, 4-(7-Oxy-1-methyl-9-H-b-carbolin)butyl tert-butyl carbamate] |  |
| 48 | 77 | Cc1nccc2c1[nH]c1cc(NC(=O)c3ccccc3)ccc12 [1-11, 7-Benzamide-1-methyl-9H-b-carboline] | IC50 (DYRK1A; duplicates): 0.389 ± 0.0326 µM; DYRK1A inhibition (result in words) (DYRK1A): partially recovered |
| 45 | 69 | CC(=O)NCCCCOc1ccc2c(c1)[nH]c1c(C)nccc12 [1-6c, 4-(7-Oxy-1-methyl-9-H-b-carbolin) -2-acetyl-butylamine] |  |
| 20 | 44 | Cc1nccc2c1[nH]c1cc(OCCCCC(=O)O)ccc12 [1-4d, 5-(7-Oxy-1-methyl-9-H-b-carbolin)pentanoic acid] |  |
|  |  | Cc1nccc2c1[nH]c1cc(N)ccc12 [1-9, 7-Amino-1-methyl-9H-b-carboline] | DYRK1A inhibition (result in words) (DYRK1A): completely lost its DYRK1A inhibitory activity; inhibition at 0.3 µM (DYRK1A): 8%; inhibition at 1 µM (DYRK1A): 21% |
| 43 | 74 | Cc1nccc2c1[nH]c1cc(OCCCCCC(=O)O)ccc12 [1-4e, 6-(7-Oxy-1-methyl-9-H-b-carbolin)hexanoic acid] |  |
| 10 | 30 | Cc1nccc2c1[nH]c1cc(OCC(N)=O)ccc12 [1-3a, 2-(7-Oxy-1-methyl-9-H-b-carbolin)acetamide] |  |
|  |  | Cc1nccc2c1[nH]c1cc(OCCC(=O)O)ccc12 [1-4b, 3-(7-Oxy-1-methyl-9-H-b-carbolin)propionic acid] | IC50 (DYRK1A; duplicates): 1.81 ± 0.101 µM |
| 32 | 58 | Cc1nccc2c1[nH]c1cc(OCCCC(N)=O)ccc12 [1-3c, 4-(7-Oxy-1-methyl-9-H-b-carbolin)butanamide] |  |
|  |  | Cc1nccc2c1[nH]c1cc(OCC(=O)O)ccc12 [1-4a, 2-(7-Oxy-1-methyl-9-H-b-carbolin)acetic acid] | inhibition at 0.3 µM (DYRK1A): 3%; inhibition at 1 µM (DYRK1A): 6% |
|  |  | COC(=O)CCOc1ccc2c(c1)[nH]c1c(C)nccc12 [1-2b, 3-(7-Oxy-1-methyl-9-H-b-carbolin)propionic acid methyl ester] | human β-cell proliferation at screening concentration (human β-cells): exhibit human β-cell proliferation; human β-cell proliferation relative to harmine (in words) (human β-cells; [2]): half that of harmine; maximal human β-cell proliferation as % that of harmine (human β-cells; [2]): 66%; human β-cell proliferation dose-response (human β-cells; dose-response up to 30 μM, n = 3 human islet donors for each dose): induced proliferation in a dose-dependent manner; IC50 (DYRK1A; duplicates): 0.089 µM and 0.0897 µM; fold less potent DYRK1A inhibition as compared to harmine (DYRK1A): 4 fold and ~ 3 fold |
| 35 | 61 | Cc1nccc2c1[nH]c1cc(OCCNC(=O)OC(C)(C)C)ccc12 [1-2k, 2-(7-Oxy-1-methyl-9-H-b-carbolin)ethyl tert-butyl carbamate] |  |
| 35 | 67 | COC(=O)CCCCOc1ccc2c(c1)[nH]c1c(C)nccc12 [1-2d, 5-(7-Oxy-1-methyl-9-H-b-carbolin)pentanoic acid methyl ester] |  |
|  |  | COC(=O)CCCCCOc1ccc2c(c1)[nH]c1c(C)nccc12 [1-2e, 6-(7-Oxy-1-methyl-9-H-b-carbolin)hexanoic acid methyl ester] | IC50 (DYRK1A; duplicates): 0.134 ± 0.00455 µM; inhibition at 0.3 µM (DYRK1A): 56%; inhibition at 1 µM (DYRK1A): 81% |
| 15 | 32 | Cc1nccc2c1[nH]c1cc(OCCOCCN)ccc12 [1-5d, 2-((7-Oxy-1-methyl-9-H-b-carbolin)ethoxy)ethylamine hydrochloric acid] |  |
| 24 | 49 | CC(=O)NCCOc1ccc2c(c1)[nH]c1c(C)nccc12 [1-6a, 2-(7-Oxy-1-methyl-9-H-b-carbolin)-2-acetyl-ethylamine] |  |
| 27 | 48 | Cc1nccc2c1[nH]c1cc(OCCOCCNC(=O)OC(C)(C)C)ccc12 [1-2n, 2-((7-Oxy-1-methyl-9-H-b-carbolin)ethoxy)ethyl tert-butyl carbamate] |  |
| 15 | 42 | Cc1nccc2c1[nH]c1cc(OCCCCN)ccc12 [1-5c, 4-(7-Oxy-1-methyl-9-H-b-carbolin)butylamine hydrochloric acid] |  |
|  |  | COCCOc1ccc2c(c1)[nH]c1c(C)nccc12 [1-2o, 2-(7-oxy-1-methyl-9-H-b-carbolin)methoxyethyl] | DYRK1A inhibition (result in words) (DYRK1A): not favorable for the DYRK1A inhibition; inhibition at 0.3 µM (DYRK1A): 23%; inhibition at 1 µM (DYRK1A): 48% |
|  |  | Cc1nccc2c1[nH]c1cc(OC(=O)NC(C)C)ccc12 [1-12, 1-Methyl-9H-pyrido[3,4-b]indol-7-yl isopropylcarbamate] | DYRK1A inhibition (result in words) (DYRK1A): moderately active; inhibition at 0.3 µM (DYRK1A): 42%; inhibition at 1 µM (DYRK1A): 69% |
| 39 | 67 | Cc1nccc2c1[nH]c1cc(OCCCCCC(N)=O)ccc12 [1-3e, 6-(7-Oxy-1-methyl-9-H-b-carbolin)hexanamide] |  |

| SMILES | inhibition at 0.3 µM (DYRK1A; compound at 300 nM, duplicates) [%] | inhibition at 1 µM (DYRK1A; [1]) [%] | also measured |
| --- | --- | --- | --- |
| CCOCCOc1ccc2c(c1)[nH]c1c(C)nccc12 [1-2p, 3-(7-Oxy-1-methyl-9-H-b-carbolin)ethoxyethyl] | 19 | 37 | DYRK1A inhibition (result in words) (DYRK1A): not favorable for the DYRK1A inhibition |
| Cc1nccc2c1[nH]c1cc(OCCCNC(=O)OC(C)(C)C)ccc12 [1-2l, 3-(7-Oxy-1-methyl-9-H-b-carbolin)propyl tert-butyl carbamate] | 24 | 50 |  |
